Measured values: the NIST ThermoML archive (doi:10.1016/j.jct.2008.04.016)

Tests used:
[1] = for viscosity / mass density: 101.33 kPa, Liquid
[2] = refractive index (Na D-line) (dimensionless); conditions: 101.33 kPa, Liquid

CCCCCC[n+]1ccn(C)c1.O=S(=O)([N-]S(=O)(=O)C(F)(F)F)C(F)(F)F
Conditions	mass density [kg/m3]	refractive index	surface tension liquid-gas [mN/m]	viscosity [mPa·s]
[1], 288.2 K	–	–	–	97
[1], 298.15 K	1372.13	–	32.5	–
[1], 298.2 K	–	–	–	68
[1], 308.15 K	1363.17	–	31.6	–
[1], 308.2 K	–	–	–	46
[1], 318.15 K	1354.23	–	30.5	–
[1], 318.2 K	–	–	–	32
[1], 328.15 K	1344.94	–	29.7	–
[1], 328.2 K	–	–	–	24
[1], 338.15 K	1335.86	–	28.6	–
[1], 348.15 K	1326.91	–	–	–
[1], 358.15 K	1318.16	–	–	–
[2], 302.95 K	–	1.42958	–	–
[2], 307.75 K	–	1.42844	–	–
[2], 313.15 K	–	1.42737	–	–
[2], 318.05 K	–	1.42649	–	–
[2], 322.95 K	–	1.42578	–	–
[2], 328.05 K	–	1.42484	–	–
[2], 332.95 K	–	1.42376	–	–

CCCCCCn1cc[n+](C)c1.F[P-](F)(F)(F)(F)F [1-hexyl-3-methylimidazolium hexafluorophosphate]
Conditions	mass density [kg/m3]	refractive index	surface tension liquid-gas [mN/m]	viscosity [mPa·s]
[1], 288.2 K	–	–	–	1018
[1], 298.15 K	1293.41	–	42.1	–
[1], 298.2 K	–	–	–	607
[1], 308.15 K	1285.78	–	40.7	–
[1], 308.2 K	–	–	–	345
[1], 318.15 K	1277.92	–	39.4	–
[1], 318.2 K	–	–	–	215
[1], 328.15 K	1269.88	–	38	–
[1], 328.2 K	–	–	–	152
[1], 338.15 K	1262.13	–	36.6	–
[1], 338.2 K	–	–	–	113
[1], 348.15 K	1254.36	–	–	–
[1], 348.2 K	–	–	–	87
[1], 358.15 K	1246.81	–	–	–
[2], 302.95 K	–	1.41694	–	–
[2], 307.75 K	–	1.41631	–	–
[2], 313.15 K	–	1.41531	–	–
[2], 318.05 K	–	1.41479	–	–
[2], 322.95 K	–	1.41362	–	–
[2], 328.05 K	–	1.41307	–	–
[2], 332.95 K	–	1.41231	–	–

CCCCCCn1cc[n+](C)c1.F[B-](F)(F)F [1-hexyl-3-methylimidazolium tetrafluoroborate]
Conditions	mass density [kg/m3]	refractive index	surface tension liquid-gas [mN/m]	viscosity [mPa·s]
[1], 288.2 K	–	–	–	141
[1], 298.15 K	1145.32	–	36.8	–
[1], 298.2 K	–	–	–	102
[1], 308.15 K	1138.51	–	35.6	–
[1], 308.2 K	–	–	–	69
[1], 318.15 K	1131.67	–	34.2	–
[1], 318.2 K	–	–	–	43
[1], 328.15 K	1124.89	–	33	–
[1], 328.2 K	–	–	–	30
[1], 338.15 K	1118.16	–	32.7	–
[1], 338.2 K	–	–	–	21
[1], 348.15 K	1111.47	–	–	–
[1], 358.15 K	1104.84	–	–	–
[2], 302.95 K	–	1.42672	–	–
[2], 307.75 K	–	1.42613	–	–
[2], 313.15 K	–	1.42539	–	–
[2], 318.05 K	–	1.42443	–	–
[2], 322.95 K	–	1.42346	–	–
[2], 328.05 K	–	1.42232	–	–
[2], 332.95 K	–	1.42146	–	–
